Source: PMC10328330 (PLOS ONE, 2023)
Like-named read-outs stand apart in the source and are kept apart here. Numbered stars: 1 amine (or outer) side, 2 acyl side, 3 side chain; on linkers, the order of the positions; unused ones are H or OH. Bridge positions count the residues as written; N and C are the ends. Square brackets hold non-standard residues; d marks the D form. Peptide text beside a SMILES is read from it. * marks the point of attachment. pTerphenylCO(4''-OnC5H11) = CCCCCOc1ccc(-c2ccc(-c3ccc(C(=O)*)cc3)cc2)cc1; Orn(4R-OH,5R-OH) = O=C([C@H](C[C@@H](O)[C@@H](O)N[*:3])N[*:1])[*:2]; hTyr(3S-OH,4S-OH) = N[C@H](C(=O)O)[C@H](O)[C@@H](O)c1ccc(O)cc1; Pro(3S-OH,4S-Me) = C[C@H]1CN[C@H](C(=O)O)[C@H]1O; Hyp = O=C(O)[C@@H]1C[C@@H](O)CN1

Assays:
[1] = test system: T. gondii tachyzoites (RH strain, clone 2F1); experiment: microbe, parasite or virus in culture; assay type: cell-based, Toxoplasma gondii; conditions: for EC50: Toxoplasma gondii, 72 h, read-out: EC50 ± SD against T. gondii tachyzoites
in vitro = conditions: human
[2] = Cytotoxicity in mammalian cells (MTT assay); conditions: human, HFF cells
[3] = RH-2F1 tachyzoites in HFF, β-galactosidase readout, ± SD of two independent experiments
[4] = CC50 HFF cells/EC50 T. gondii ratio

Structure (SMILES)	Selectivity Index (SI) [1]	EC50 [1, 3] [nM]	CC50 at 72 h (in vitro) [nM]	Selectivity Index (SI) [1, 4]	CC50 (in vitro) [nM]	CC50 at 72 h [2] [nM]	EC50 [1] [nM]
CCSc1ccc2c(c1)N(CCCN1CCN(C)CC1)c1ccccc1S2 [Compound 21, Thiethylperazine]	37	900 ± 110	33100 ± 6010	–	–	–	–
CC(C)(C)Cn1c(N)nc2ccc(-c3[nH]c(C(C)(C)C)nc3-c3ccc(F)cc3)nc21 [Compound 7, LY 2228820]	–	230 ± 10	–	116	26600 ± 11600	–	–
CCN1CCN(Cc2ccc(Nc3ncc(F)c(-c4cc(F)c5nc(C)n(C(C)C)c5c4)n3)nc2)CC1 [Compound 12, Abemaciclib]	–	50 ± 20	–	–	–	> 50000	–
CO[C@H]1C[C@@H]2CC[C@@H](C)[C@@](O)(O2)C(=O)C(=O)N2CCCC[C@H]2C(=O)O[C@H]([C@H](C)C[C@@H]2CC[C@@H](O)[C@H](OC)C2)CC(=O)[C@H](C)/C=C(\C)[C@@H](O)[C@@H](OC)C(=O)[C@H](C)C[C@H](C)/C=C/C=C/C=C/1C [Compound 17, Rapamycin]	>65	770 ± 300	> 50000	–	–	–	–
COc1ccc2cc1Oc1ccc(cc1)C[C@H]1c3cc(c(OC)cc3CCN1C)Oc1c(OC)c(OC)cc3c1[C@H](C2)N(C)CC3 [Compound 13, Tetrandrine]	71	490 ± 150	–	–	34700 ± 17000	–	–
O=c1[nH]c2ccccc2n1C1CCN(CCCC(c2ccc(F)cc2)c2ccc(F)cc2)CC1 [Compound 29, Pimozide]	>61	820 ± 220	–	–	–	> 50000	–
CCc1nc(N)nc(N)c1-c1ccc(Cl)cc1 [Compound 30, Pyrimetamine]	–	370 ± 80	–	–	–	> 50000	–
CCCCCOc1ccc(-c2ccc(-c3ccc(C(=O)N[C@H]4C[C@@H](O)[C@@H](O)NC(=O)[C@@H]5[C@@H](O)[C@@H](C)CN5C(=O)[C@H]([C@@H](C)O)NC(=O)[C@H]([C@H](O)[C@@H](O)c5ccc(O)cc5)NC(=O)[C@@H]5C[C@@H](O)CN5C(=O)[C@H]([C@@H](C)O)NC4=O)cc3)cc2)cc1 [Compound 19, Anidulafungin] ({pTerphenylCO(4''-OnC5H11)}-[Orn(4R-OH,5R-OH)]T[Hyp][hTyr(3S-OH,4S-OH)]T[Pro(3S-OH,4S-Me)]; lactam 1-C)	–	830 ± 210	–	47	38900 ± 15700	–	–
COc1cc(NC(=O)Nc2cccc(CNC(=O)O[C@H]3CCOC3)c2)ccc1-c1cnco1 [Compound 24, Merimepodib]	–	780 ± 270	–	–	26400 ± 10000	–	–
Nc1nc(Nc2ccc3c(c2)CC[C@@H](N2CCCC2)CC3)nn1-c1cc2c(nn1)-c1ccccc1CCC2 [Compound 2, Bemcentinib]	–	380 ± 190	31600 ± 5520	83	–	–	–
CCOc1ccc(Cc2nccc3cc(OCC)c(OCC)cc23)cc1OCC [Compound 3, Ethaverine]	>54	920 ± 90	> 50000	–	–	–	–
COc1cc2c3cc1Oc1c(OC)c(OC)cc4c1[C@@H](Cc1ccc(O)c(c1)Oc1ccc(cc1)C[C@@H]3N(C)CC2)N(C)CC4 [Compound 18, Berbamine]	–	740 ± 340	–	61	45300 ± 5400	–	–
CN(C)[C@@H]1C(O)=C(C(N)=O)C(=O)[C@@]2(O)C(O)=C3C(=O)c4c(O)cccc4[C@@](C)(O)[C@H]3C[C@@H]12 [Compound 15, Tetracycline]	–	910 ± 90	–	–	> 50000	–	–
CN(C)CCOc1ccc(/C(=C(/CCCl)c2ccccc2)c2ccccc2)cc1 [Compound 16, Toremifene]	–	–	44300 ± 6800	–	–	–	850 ± 180
COC(=O)C1=C(C)NC(C)=C(C(=O)OCCN2CCN(C(c3ccccc3)c3ccccc3)CC2)C1c1cccc([N+](=O)[O-])c1 (stereo not drawn) [Compound 10, Manidipine]	–	700 ± 250	> 50000	>71	–	–	–
CNC(=O)c1cc(Oc2ccc(NC(=O)Nc3ccc(Cl)c(C(F)(F)F)c3)c(F)c2)ccn1 [Compound 4, Regorafenib]	–	400 ± 150	11600 ± 2190	29	–	–	–
C[C@@H]1C[C@@H]([C@H](O)CC2CC(=O)NC(=O)C2)C(=O)[C@@H](C)C1 [Compound 25, Cycloheximide]	–	40 ± 20	–	–	2480 ± 80	–	–
